# Assay: in-vitro nail permeation assay in Franz-type diffusion cells
# Type: in vitro ADME, human
# Details: formulations with 5% and 10% (w/w) terbinafine in the vehicle of Table 3; nails with 400 orifices/cm^2, depth 0.5 mm (50% to 70% of nail plate thickness); single dose of 100 μL; 30° C.; up to 72 hours
# Protocol: Franz-cells comprise two chambers separated by the nail plate. The radiolabelled [^14C]-terbinafine containing transungual formulations were applied in the donor upper chamber and the receptor chamber is filled with a buffer to simulate the human physiological conditions. To account for the fact the nails are hard and curved, wetted nails are clamped between two flexible flat silicone polymer disks. The temperature of the cells was kept a 30° C. using a circulating water bath. Magnetic stirrer bars were used to ensure receptor uniformity throughout an experiment.
# The nail permeation assays consisted of exposing the dorsal side of the nail plates to the investigated formulations while monitoring the appearance the amount of radiolabelled [^14C]-terbinafine on the ventral side by […] in the receptor fluid chamber of the Franz cells. In all cases a single dose of 100 μL was applied in the nail dorsal side. 100 μL of buffer were taken for each time point for LSC measurement which was replaced by buffer in order to keep the total buffer volume constant. The sampling time points were 0, 1, 3, 5, 7, 24, 32, 48, 52, 55 and 72 hours.
# Human cadaveric thumb toenails used in the permeation assays were harvested from diseased adults (age >50 years old) in order to match thickness and consistence of the nails of the patient age group having a higher incidence to onychomycosis. […]
smiles,measurement,value
CN(C/C=C/C#CC(C)(C)C)Cc1cccc2ccccc12 [terbinafine],terbinafine permeation fluxes in laser pre-treated nails versus untreated nails,three to four times higher
